Laboratory results as given in patent US12534457B2, “Heteroaryl derivative compounds, and uses thereof” (Voronoi Inc., priority 2021, dated 2026).

test system: Ba/F3 cells expressing EGFR Del19/C797S (EGFR DC); assay: Proliferation inhibitory activity, Ba/F3 cells expressing EGFR Del19/C797S (CellTiter-Glo); assay type: cell-based; conditions: 72 hours of compound treatment
Protocol: The following experiments were performed to evaluate the inhibitory activity of the compounds according to the present disclosure on Ba/F3 proliferation expressing EGFR C797S, L861Q, G719A, S768I, L718Q, and/or G724S mutations.
For Ba/F3 cells, RPMI-1640 containing 10% FBS and 5 ng/ml IL-3 (R&D Systems) was used. Transduced Ba/F3 cells were cultured after adding 1 μg/ml puromycin (Invitrogen) to the same medium.
At 24 hours before treatment with the compounds, 3000 to 5000 cells were aliquoted into each well of a white clear bottom 96 well plate (Corning). The compounds were diluted in dimethyl sulfoxide (3 times dilution, 12 concentrations in total), and injected in an amount of 1 μl so that the final concentration was 0.2 nM to 5 uM. For measurement of living cells, after 72 hours of compound treatment, the cells were stored at room temperature for 10 min using CellTiter-Glo luminescentcell-viability reagent (Promega), and then luminescence intensity was measured using a reader (SynergyNeo, Biotek). Each test was repeated three times. Result values were calculated as the cell growth rate (%) compared to the control. The graphs were created using GraphPad Prism version 8.3.0 program and the GI50 values were calculated.

With `COc1cc(N2CCC(N3CCCN(C)CC3)CC2)ccc1Nc1cc(N2OCC[C@@H]2c2cccc(F)c2F)ncn1` [Example 221] the GI50 was under 50 nM.

same assay, conditions: Mus musculus, BaF3, 72 hours of compound treatment

`COc1cc(N2CCC(N(C)C)CC2)ccc1Nc1cc(N2OCC[C@@H]2c2cc(F)cc(F)c2)ncn1` [Example 22, (R)-6-(3-(3,5-difluorophenyl)isoxazolidin-2-yl)-N-(4-(4-(dimethylamino)piperidin-1-yl)-2-methoxyphenyl)pyrimidin-4-amine] and `COc1cc(N2CCC(N3CCN(C)CC3)CC2)ccc1Nc1cc(N2OCC[C@@H]2c2ccc(F)c(Cl)c2)ncn1` [Example 31, (R)-6-(3-(3-chloro-4-fluorophenyl)isoxazolidin-2-yl)-N-(2-methoxy-4-(4-(4-methylpiperazin-1-yl)piperidin-1-yl)phenyl)pyrimidin-4-amine] cannot be ordered by GI50: under 50 nM for the first, under 50 nM for the second.

`CN(C)[C@@H]1CCN(c2ccc(Nc3cc(N4OCC[C@@H]4c4ccccc4)ncn3)cc2)C1` [Example 69, N-(4-((R)-3-(dimethylamino)pyrrolidin-1-yl)phenyl)-6-((R)-3-phenylisoxazolidin-2-yl)pyrimidin-4-amine] and `CN(C)C1CCN(c2ccc(Nc3cc(N4OCC[C@@H]4c4ccccc4)ncn3)cc2)CC1` [Example 127, (R)—N-(4-(4-(dimethylamino)piperidin-1-yl)phenyl)-6-(3-phenylisoxazolidin-2-yl)pyrimidin-4-amine] cannot be ordered by GI50: under 50 nM for the first, under 50 nM for the second.

`COc1cc(N2CCCN(C)CC2)ccc1Nc1cc(N2OCC[C@@H]2c2ccccc2)ncn1` [Example 67, (R)—N-(2-methoxy-4-(4-methyl-1,4-diazepan-1-yl)phenyl)-6-(3-phenylisoxazolidin-2-yl)pyrimidin-4-amine] and `COc1cc(N2CCN(C3CCN(C)CC3)CC2)ccc1Nc1cc(N2OCC[C@@H]2c2ccccc2)ncn1` [Example 101, (R)—N-(2-methoxy-4-(4-(1-methylpiperidin-4-yl)piperazin-1-yl)phenyl)-6-(3-phenylisoxazolidin-2-yl)pyrimidin-4-amine] cannot be ordered by GI50: under 50 nM for the first, under 50 nM for the second.

First: CN1CCC(n2cc(-c3ccc(Nc4cc(N5OCC[C@@H]5c5cc(F)cc(F)c5)ncn4)c4c3CCO4)cn2)CC1 [Example 160, (R)-6-(3-(3,5-difluorophenyl)isoxazolidin-2-yl)-N-(4-(1-(1-methylpiperidin-4-yl)-1H-pyrazol-4-yl)-2,3-dihydrobenzofuran-7-yl)pyrimidin-4-amine]
Second: CN1CCN(c2c(-c3cnn(C)c3)cc(Nc3cc(N4OCC[C@@H]4c4ccccc4)ncn3)c3c2CCO3)CC1 [Example 162, (R)—N-(5-(1-methyl-1H-pyrazol-4-yl)-4-(4-methylpiperazin-1-yl)-2,3-dihydrobenzofuran-7-yl)-6-(3-phenylisoxazolidin-2-yl)pyrimidin-4-amine]
The GI50 of the first is higher: 50 to 500 nM for the first, under 50 nM for the second.

First: FC(F)(F)c1cccc(Nc2cc(N3OCC[C@@H]3c3ccccc3)ncn2)c1 [Example 73, (R)-6-(3-phenylisoxazolidin-2-yl)-N-(3-(trifluoromethyl)phenyl)pyrimidin-4-amine]
Second: Cc1cc(Nc2cc(N3OCC[C@@H]3c3ccccc3)ncn2)ccc1N1CCN(C)CC1 [Example 107, (R)—N-(3-methyl-4-(4-methylpiperazin-1-yl)phenyl)-6-(3-phenylisoxazolidin-2-yl)pyrimidin-4-amine]
The GI50 of the first is higher: 50 to 500 nM for the first, under 50 nM for the second.

Compared with `CN1CCN(C2CCN(c3ccc(Nc4cc(N5OCC[C@@H]5c5cc(F)cc(F)c5)ncn4)cc3C(F)(F)F)CC2)CC1` [Example 23, (R)-6-(3-(3,5-difluorophenyl)isoxazolidin-2-yl)-N-(4-(4-(4-methylpiperazin-1-yl)piperidin-1-yl)-3-(trifluoromethyl)phenyl)pyrimidin-4-amine], `Cc1cc(Nc2cc(N3OCC[C@@H]3c3cc(F)ccc3F)ncn2)ccc1N1CCC(N2CCN(C)CC2)CC1` [Example 103, (R)-6-(3-(2,5-difluorophenyl)isoxazolidin-2-yl)-N-(3-methyl-4-(4-(4-methylpiperazin-1-yl)piperidin-1-yl)phenyl)pyrimidin-4-amine] is lower in GI50: 50 to 500 nM for the first, under 50 nM for the second.

`COc1cc(N2CCC(N3CCN(C)CC3)CC2)c(C2CC2)cc1Nc1cc(N2OCC[C@@H]2c2ccccc2)ncn1` [Example 143, (R)—N-(5-cyclopropyl-2-methoxy-4-(4-(4-methylpiperazin-1-yl)piperidin-1-yl)phenyl)-6-(3-phenylisoxazolidin-2-yl)pyrimidin-4-amine] and `COc1cc(N2CCC(N3CCN(C)CC3)CC2)c(C)cc1Nc1cc(N2OCC[C@@H]2c2ccccc2)ncn1` [Example 114, (R)—N-(2-methoxy-5-methyl-4-(4-(4-methylpiperazin-1-yl)piperidin-1-yl)phenyl)-6-(3-phenylisoxazolidin-2-yl)pyrimidin-4-amine] cannot be ordered by GI50: under 50 nM for the first, under 50 nM for the second.

Compared with `COc1cc(N2CCC(N3CCN(C)CC3)CC2)ccc1Nc1cc(N2OCC[C@@H]2c2cccc(N(C)C)c2)ncn1` [Example 131, (R)-6-(3-(3-(dimethylamino)phenyl)isoxazolidin-2-yl)-N-(2-methoxy-4-(4-(4-methylpiperazin-1-yl)piperidin-1-yl)phenyl)pyrimidin-4-amine], `COc1cc(N2CCC(N3CCN(C)CC3)CC2)ccc1Nc1cc(N2OCC[C@@H]2c2cccs2)ncn1` [Example 35, (R)—N-(2-methoxy-4-(4-(4-methylpiperazin-1-yl)piperidin-1-yl)phenyl)-6-(3-(thiophen-2-yl)isoxazolidin-2-yl)pyrimidin-4-amine] is lower in GI50: 50 to 500 nM for the first, under 50 nM for the second.

`CCc1cc(Nc2cc(N3OCC[C@@H]3c3ccccc3)ncn2)c(OC)cc1N1CCC(N2CCN(C)CC2)CC1` [Example 109, (R)—N-(5-ethyl-2-methoxy-4-(4-(4-methylpiperazin-1-yl)piperidin-1-yl)phenyl)-6-(3-phenylisoxazolidin-2-yl)pyrimidin-4-amine] and `CCc1cc(Nc2cc(N3OCC[C@@H]3c3cccc(F)c3F)ncn2)c(OC)cc1N1CCC(N2CCN(C)CC2)CC1` [Example 92, (R)-6-(3-(2,3-difluorophenyl)isoxazolidin-2-yl)-N-(5-ethyl-2-methoxy-4-(4-(4-methylpiperazin-1-yl)piperidin-1-yl)phenyl)pyrimidin-4-amine] cannot be ordered by GI50: under 50 nM for the first, under 50 nM for the second.

Compared with `Fc1cccc([C@H]2CCON2c2cc(Nc3ccc([C@@H]4CCON4)cc3)ncn2)c1F` [Example 177, 6-((R)-3-(2,3-difluorophenyl)isoxazolidin-2-yl)-N-(4-((S)-isoxazolidin-3-yl)phenyl)pyrimidin-4-amine], `C=Cc1cc(Nc2cc(N3OCC[C@@H]3c3cccc(F)c3F)ncn2)c(OC)cc1N1CCN(C)CC1` [Example 199, (R)-6-(3-(2,3-difluorophenyl)isoxazolidin-2-yl)-N-(2-methoxy-4-(4-methylpiperazin-1-yl)-5-vinylphenyl)pyrimidin-4-amine] is lower in GI50: 50 to 500 nM for the first, under 50 nM for the second.

`COc1cc(N2CCC(N3C[C@H]4C[C@@H]3CN4C)CC2)ccc1Nc1cc(N2OCC[C@@H]2c2ccccc2)ncn1` [Example 57, N-(2-methoxy-4-(4-((1R,4R)-5-methyl-2,5-diazabicyclo[2.2.1]heptan-2-yl)piperidin-1-yl)phenyl)-6-((R)-3-phenylisoxazolidin-2-yl)pyrimidin-4-amine] and `CN1CCC(N2CCN3c4ccc(Nc5cc(N6OCC[C@@H]6c6ccccc6)ncn5)cc4OC[C@H]3C2)CC1` [Example 48, (R)-3-(1-methylpiperidin-4-yl)-N-(6-((R)-3-phenylisoxazolidin-2-yl)pyrimidin-4-yl)-1,2,3,4,4a,5-hexahydrobenzo[b]pyrazino[1,2-d][1,4]oxazin-8-amine] cannot be ordered by GI50: under 50 nM for the first, under 50 nM for the second.

First: CN(C)CCN(C)c1ccc(Nc2cc(N3OCC[C@@H]3c3cc(F)cc(F)c3)ncn2)cc1 [Example 19, (R)—N^1-(6-(3-(3,5-difluorophenyl)isoxazolidin-2-yl)pyrimidin-4-yl)-N^4-(2-(dimethylamino)ethyl)-N^4-methylbenzene-1,4-diamine]
Second: CCC(=O)Nc1cc(Nc2cc(N3OCC[C@@H]3c3cc(F)cc(F)c3)ncn2)c(OC)cc1N1CCC(N2CCN(C3CC3)CC2)CC1 [Example 161, (R)—N-(2-(4-(4-cyclopropylpiperazin-1-yl)piperidin-1-yl)-5-((6-(3-(3,5-difluorophenyl)isoxazolidin-2-yl)pyrimidin-4-yl)amino)-4-methoxyphenyl)propionamide]
The GI50 of the first is higher: 50 to 500 nM for the first, under 50 nM for the second.

`CCc1cc(Nc2cc(N3OCC[C@@H]3c3cc(F)ccc3F)ncn2)c(OC)cc1N1CCC(N2CCN(C)CC2)CC1` [Example 94, (R)-6-(3-(2,5-difluorophenyl)isoxazolidin-2-yl)-N-(5-ethyl-2-methoxy-4-(4-(4-methylpiperazin-1-yl)piperidin-1-yl)phenyl)pyrimidin-4-amine] and `CCC(=O)Nc1cc(Nc2cc(N3OCC[C@@H]3c3cccs3)ncn2)c(OC)cc1N1CCC(N2CCN(C3CC3)CC2)CC1` [Example 163, (R)—N-(2-(4-(4-cyclopropylpiperazin-1-yl)piperidin-1-yl)-4-methoxy-5-((6-(3-(thiophene-2-yl)isoxazolidin-2-yl)pyrimidin-4-yl)amino)phenyl)propionamide] cannot be ordered by GI50: under 50 nM for the first, under 50 nM for the second.

Work on `C[C@@H]1[C@@H](CS(C)(=O)=O)CN1c1cc(Nc2cc(N3OCC[C@@H]3c3cccc(F)c3F)ncn2)cc(-c2cnn(C)c2)c1N1CCOCC1` [Example 203, 6-((R)-3-(2,3-difluorophenyl)isoxazolidin-2-yl)-N-(3-(1-methyl-1H-pyrazol-4-yl)-5-((2R,3S)-2-methyl-3-((methylsulfonyl)methyl)azetidin-1-yl)-4-morpholinophenyl)pyrimidin-4-amine] yielded a GI50 of under 50 nM.
